System: primary hippocampal neurons
Test: Structural plasticity of cultured hippocampal neurons, Sholl analysis
Assay type: cell-based, rat
Settings: for normalised AUC of the Sholl plot (dendritic arbor complexity): 24 h 5-MeO-DMT (20 μM) or cocaine (25 μM) alone, vs control; for maximum number of intersections (Nmax): FIG. 38C, all treatment groups
From the text: Primary Culture—Primary hippocampal neurons were derived from the hippocampi of embryonic day 18 (E18) rat embryos, as described previously (Seibenhener, M. L. & M. W. Wooten (2012) Isolation and Culture of Hippocampal Neurons from Prenatal Mice. Journal of Visualized Experiments: JoVE, 3634). Briefly, the brains were removed from the skull and stored in cooled Hank's Balanced Salt Solution (HBSS). The hippocampus was isolated under a dissection microscope and digested using 0.05% Trypsin (Gibco) in HBSS for 10 mins after which trypsinisation was stopped by the addition of 2% foetal calf serum (Gibco). Isolated cells were suspended in plating media and viable cells were counted with a haemocytometer using trypan blue (Gibco) staining. Cells were plated at a density of 1×10^6 cells/well on 12-well plates coated with 0.02% Poly-DL-ornithine hydrobromide (Sigma). After plating, cells were incubated at 37° C. in humidified air with 5% C02. Half medium changes were performed every 2-3 days with L-glutamic acid no longer included in the media after 3 DIV.
Immunocytochemistry—Primary hippocampal neurons grown on 18 mm diameter glass coverslips were fixed in 70% ethanol (EtOH) for 20 mins. After fixing, cells were permeabilised in 0.2% Triton X-100 (Thermo Fisher) in PBS and washed in PBS. Cells were blocked in 1% BSA (Sigma) in PBS for 45 mins. Following blocking, cells were incubated with primary antibodies in 5% BSA and 5% normal goat serum (Agilent) for 2 hours in a humidity chamber at room temperature or overnight at 4° C. Cells were rinsed in PBS and incubated with 1 ug/ml 4′,6-Diamidine-2′-phenylindole dihydrochloride (DAPI) (Thermo Fisher) for 10 mins. Coverslips were mounted on microscope slides using mounting medium containing mowiol 4-88 (Sigma), stored in the dark at 4° C. and were imaged within 7 days of mounting. Images were captured on a Zeiss AxioImager M1 fluorescent microscope using a x40 oil immersion lens. 10 images were taken per coverslip and images were analyzed by a customized R script (Appendix I) using EBImage by Bioconductor Ver 3.7. Briefly, DAPI staining was used as a nuclear reference with a threshold of a minimal radius and fluorescent intensity implemented to differentiate DAPI-labelled nuclei against cell debris or non-specific binding. A watershed command in the R script was used to ensure segmentation and identification of nuclei which may be tightly clustered as distinct objects. The nuclei were dilated using kernel expansion to designate the soma region surrounding the nucleus. A distance map was generated for each image which calculates the distance of each foreground pixel (white) to the nearest background pixel (black). Protein expression was measured as the average pixel fluorescence intensity for each cell in each channel. In all experiments cells were stained with an antibody for NeuN, a protein specifically expressed in neurons, to localise protein changes to the neuronal or non-neuronal cellular populations in the culture. Proteins assessed by ICC were 5-HT1AR (FIG. 7A), 5-HT2AR (FIG. 7B).
Primary hippocampal cultures were grown on 18 mm glass coverslips at a density of 1×10^6 cells as described. On 3 DIV all cells underwent a full medium change. […] On 4 DIV, all cells underwent a second full medium change. Cells in the combination group were treated with 2 μM 5-MeO-DMT for a further 24 hours with all other groups beginning a 24-hour treatment. After treatment was completed the cells were fixed and processed as described below.
After termination of drug treatment coverslips were processed and imaged as outlined for immunocytochemistry. In all instances NeuN antibody staining was used to visualize projections from the cell body. Images were analyzed using the Simple Neurite Tracer and Sholl analysis plug-ins for ImageJ Fiji. For the Sholl analysis circle radii of 2 μm increments were used. All images were taken and analyzed by an experimenter blinded to treatment conditions. […]

SMILES	normalised AUC of the Sholl plot (dendritic arbor complexity) (FIG. 38B)	maximum number of intersections (Nmax)	normalised AUC of the Sholl plot (FIG. 38B, 24 h cocaine followed by 24 h 5-MeO-DMT)	average neurite length (FIG. 38D, cocaine followed by 5-MeO-DMT)
COC(=O)[C@H]1[C@@H](OC(=O)c2ccccc2)C[C@@H]2CC[C@H]1N2C.Cl [cocaine, cocaine hydrochloride, reference compound]	increase dendritic arbor complexity	unchanged between treatment groups		
COc1ccc2[nH]cc(CCN(C)C)c2c1 [5-MeO-DMT, 5-methoxy-N,N-dimethyltryptamine]	increase dendritic arbor complexity	unchanged between treatment groups	increased the normalised AUC relative to either compound alone	significantly increased the average neurite length relative to both the control and cocaine alone treatment groups

Source: patent US20240299353A1, “COMPOSITIONS AND METHODS FOR TREATING […] 5-MEO-DMT” (Alvarius Pharmaceuticals Ltd., priority 2021, published 2024)
